Usually Kd stands for the constant that tells how readily two partners part at equilibrium.

Data on 1 molecule can be found in US8350062B2, “Synthesis and anticancer activity of new actin-targeting small-molecule agents” (priority 2009, dated 2013).

Series [1] addresses filamentous actin (Oryctolagus cuniculus, UniProt P68135). The series can be described thus: TIRF microscopy of Oregon green-labeled actin filaments with analog 10. Format: biochemical. Conditions: 1.5 μM solution. The protocol: Encouraged by the initially observed potent G-actin binding affinity of 10, we next employed time-lapse total internal reflection fluorescence (TIRF) microscopy to examine the effects of this compound on depolymerization of filamentous actin in vitro. We initially assembled individual actin filaments by elongating them from a pool of 1.0 μM Mg-ATP-actin monomers supplemented with a trace of […] Mg-ATP-actin monomers labeled with Oregon green for visualization. The resulting filaments were incubated with either a solution of buffer or a 1.5 μM solution of 10 and imaged with TIRF microscopy. […] Similar to our previous observations, the mechanism of actin depolymerization by 10 entailed formation of multiple filaments breaks, which in turn created subsequent points for actin disassembly.

Series [2] deals with PC3 cells. The series can be described thus: Growth of PC3 cells over 96 h. The format is cell-based, human. Conditions: same growth conditions. The protocol: (§1) Cell Viability Assays. All assays were performed using at least three replicate wells for each concentration tested. Original 10-25 mM DMSO stock solution of bistramide A or its analogs was diluted to 100 μM for analogs 4-8, 10 μM for analog 3, 5 μM for analog 2 and 1 μM for bistramide A (1) with F-12K cell culture media supplemented with 10% fetal bovine serum, 100 I.U./ml penicillin, 100 μg/ml streptomycin and 2 mM L-glutamine. Two-fold serial dilutions were performed and used for cell-based assays. A549 cells were grown in 96-well white plates at the density of 1,000 cells per well in 100 μl F-12K cell culture media. Cells were allowed to attach over 24 h and treated with 30 μl of the drug solution and incubated further for 48 h. After incubation, cell viability was determined using luminescence-based commercial kit (CellTiter-Glo, Promega) and luminescence measured using a Wallac Victor 3 plate reader. To measure cell growth inhibition, viability assays were performed twice: at initial time point T0 and after 48 h incubation (T48). Change in the number of viable cells was measured, and GI50 was calculated from sigmoidal plots. For analog 10, growth of A549 and PC3 cells was monitored over 96 h following addition of the drug. 100 μM was the highest concentration tested. At no point did the total DMSO conc. exceed 1%.

The test system of series [3] is A549 cells. The series can be described thus: Cell viability assay (CellTiter-Glo), growth inhibition of A549 cells. Format: cell-based, human. Conditions: 24-96 h. The protocol: as §1
A general note: Cellular ATP, detected with luciferase, serves as a proxy for viable cell number.

Series [4] can be described thus: Single dose i.p. toxicity in mice. Format: in vivo. Conditions: daily weight and behavior. The protocol: (§2) Initially, we established that 10 had no observed toxicity in mice up to 50 mg/kg a single dose administered i.p. Toxicity was assessed by daily weight measurements and mouse behavior compared to non-injected mice. Next, we established tumor xenografts by injecting A549 cells subcutaneously into two groups of nude athymic mice (6 animals per group). The first group was injected only with DMSO control. The second group of animals received three i.p. doses of analog 10 (20 mg/kg) on the 3rd, 5th and 7th day after the initial tumor challenge. Tumor growth was monitored over a period of five weeks. The tumor grew rapidly in the control mice population and reached an average size of 731 mm^3 at the end of 4 weeks. […] The average tumor size for this population was 308 mm^3 after 4 weeks.

In series [5] the test system is A549 tumor xenografts. The series can be described thus: A549 tumor xenograft growth in nude athymic mice. The format is in vivo. Conditions: 20 mg/kg i.p. on 3rd, 5th and 7th day. The protocol: as §2
A population of 22 nude athymic mice was injected subcutaneously with A549 cells (10^7 cells in 100 μl PBS each). A subpopulation of 12 mice was injected with analog 10 in 1% DMSO at 20 mg/kg on the 3rd, 5th and 7th day following treatment with A549 cells. A control population of 10 mice was injected with 1% DMSO. Tumor growth was measured over 5 weeks.

The target of series [6] is T1, G-actin (Oryctolagus cuniculus, UniProt P68135).
T1 construct: Actin was purified from rabbit muscle acetone powder; tissue Pel-Freez Biologicals (acetone powder); host or cells: rabbit muscle acetone powder
The series can be described thus: Isothermal titration calorimetry, binding to monomeric actin. Further details: species or system rabbit. The settings on record: isothermal titration calorimetry, 25° C.; read-out: Kd. The protocol: Isothermal Titration Calorimetry. A solution of rabbit skeletal muscle actin (5-10 μM) was titrated with bistramide A or its analog (50-100 μM) at 25° C. in buffer containing 2 mM Tris HCl, pH 8.0, 0.2 mM CaCl2, 0.01% NaN3, 0.2 mM ATP, 0.2 mM 2-mercaptoethanol. Dissociation constants were calculated from the binding curve using Origin analytical software (OriginLab) with the binding model involving a single set of identical sites
A general note: Isothermal titration calorimetry measures the heat released or taken up as one component is titrated into another.

For the molecule `COCCC(=O)NC[C@H](O)[C@H](C)C(=O)NCCC[C@H]1O[C@@]2(CCC[C@@H](CC[C@H](C)/C=C(\C)[C@H](C)O)O2)CCC1C` (some centres unmarked) [Analog 10], the “effect on F-actin filaments” value in series [1] is given as “rapid filament disassembly”. For the same molecule, the “sensitivity of PC3 cells compared with A549 cells” value in series [2] is “substantially less sensitive”. In series [3], the “concentration giving complete growth inhibition” value worked out at 5 µM. In series [4], the “dose with no observed toxicity” value is given as “up to 50 mg/kg”. Also, in series [5], the drug-based cytotoxicity result is “no significant drug-based cytotoxicity was observed” and the tumor growth result is “substantially inhibited”. The molecule also displayed an average tumor size in series [5] (after 4 weeks) of 308 mm^3. Also, in series [6], the Kd was 9 nM.
